Reference: paper PMC6253998, “Ring-substituted 4-Hydroxy-1H-quinolin-2-ones: Preparation and Biological Activity” (Molecules, 2009)
Values after ≈ are worked out from the molar mass of the structure shown.

System: not listed separately
Experiment: Lipophilicity HPLC determination (capacity factor k / log k)
Assay type: physicochemical
Conditions: RP-HPLC, C18 column, MeOH 55.0% / H2O 45.0%, isocratic
Method: Hydrophobicities (log P/Clog P values) of the compounds 1-12 were calculated using two commercially available programs and also measured by means of the reversed phase high performance liquid chromatography (RP-HPLC) method for lipophilicity measurement. The procedure was performed under isocratic conditions with methanol as an organic modifier in the mobile phase using an end-capped non-polar C18 stationary RP column. The capacity factors k were determined and subsequent log k values were calculated.
The HPLC separation module Waters Alliance 2695 XE and Waters Photodiode Array Detector 2996 (Waters Corp., Milford, MA, U.S.A.) were used. A Symmetry® C18 5 μm, 4.6 × 250 mm, Part No. WAT054275, (Waters Corp., Milford, MA, U.S.A.) chromatographic column was used. The HPLC separation process was monitored by Millennium32® Chromatography Manager Software, Waters 2004 (Waters Corp., Milford, MA, U.S.A.). The mixture of MeOH p.a. (55.0%) and H2O-HPLC – Mili-Q Grade (45.0%) was used as a mobile phase. The total flow of the column was 0.9 mL/min, injection 30 μL, column temperature 30 °C and sample temperature 10 °C. The detection wavelength 210 nm was chosen. The KI methanolic solution was used for the dead time (TD) determination. Retention times (tR) were measured in minutes. The capacity factors k were calculated using the Millennium32® Chromatography Manager Software according to formula k = (tR - tD) / tD, where tR is the retention time of the solute, whereas tD denotes the dead time obtained via an unretained analyte. Log k, calculated from the capacity factor k, is used as the lipophilicity index converted to log P scale.

SMILES	log k
Cc1ccc2[nH]c(=O)cc(O)c2c1 [Compound 2, 4-Hydroxy-6-methylquinolin-2(1H)-one]	0.3307
Nc1c(O)c2ccccc2[nH]c1=O [Compound 6, 3-Amino-4-hydroxyquinolin-2(1H)-one]	0.0004

System: spinach chloroplasts
Experiment: Inhibition of oxygen evolution rate (OER) / photosynthetic electron transport in spinach chloroplasts
Assay type: biochemical, Spinacia oleracea L.
Conditions: DCPIP photoreduction, pH 7.2
Method: Chloroplasts were prepared from spinach (Spinacia oleracea L.) according to Masarovicova and Kralova. The inhibition of photosynthetic electron transport (PET) in spinach chloroplasts was determined spectrophotometrically (Genesys 6, Thermo Scientific, U.S.A.) using an artificial electron acceptor 2,6-dichlorophenol-indophenol (DCPIP) according to Kralova et al. and the rate of photosynthetic electron transport was monitored as a photoreduction of DCPIP. The measurements were carried out in phosphate buffer (0.02 mol/L, pH 7.2) containing sucrose (0.4 mol/L), MgCl2 (0.005 mol/L) and NaCl (0.015 mol/L). The chlorophyll content was 30 mg/L in these experiments and the samples were irradiated (~100 W/m^2) from 10 cm distance with a halogen lamp (250 W) using a 4 cm water filter to prevent warming of the samples (suspension temperature 22 °C). The studied compounds were dissolved in DMSO due to their limited water solubility. […] The inhibitory efficiency of the studied compounds was expressed by IC50 values, i.e. by molar concentration of the compounds causing 50% decrease in the oxygen evolution rate relative to the untreated control.

SMILES	IC50 [µM]
Cc1ccc2[nH]c(=O)cc(O)c2c1 [Compound 2, 4-Hydroxy-6-methylquinolin-2(1H)-one]	157
Nc1c(O)c2ccccc2[nH]c1=O [Compound 6, 3-Amino-4-hydroxyquinolin-2(1H)-one]	775

System: Trichosporon beigelii 1188
Experiment: In vitro antifungal broth microdilution test
Assay type: cell-based
Conditions: Trichosporon beigelii, 1188; 24h, RPMI 1640, pH 7.0, 35 °C; read-out: MIC/IC80 TB
Method: The broth microdilution test was used for the assessment of in vitro antifungal activity of the synthesized compounds against Candida albicans ATCC 44859 (CA), Candida tropicalis 156 (CT), Candida krusei ATCC 6258 (CK), Candida glabrata 20/I (CG), Trichosporon beigelii 1188 (TB), Aspergillus fumigatus 231 (AF), Absidia corymbifera 272 (AC), and Trichophyton mentagrophytes 445 (TM). Fluconazole (FLU) was used as the standard of a clinically used antimycotic drug. The procedure was performed with twofold dilution of the compounds in RPMI 1640 (Sevapharma a.s., Prague, Czech Republic) buffered to pH 7.0 with 0.165 mol of 3-morpholino-propane-1-sulfonic acid (MOPS, Sigma, Germany). The final concentrations of the compounds ranged from 500 to 0.975 μmol/l. Drug–free controls were included. The MIC was defined as an 80% or greater (IC80) reduction of growth in comparison with the control. The values of MICs were determined after 24 and 48 h of static incubation at 35 °C. For T. mentagrophytes, the final MICs were determined after 72 and 120 h of incubation.

SMILES	MIC [µM]
Cc1ccc2[nH]c(=O)cc(O)c2c1 [Compound 2, 4-Hydroxy-6-methylquinolin-2(1H)-one]	> 500
Nc1c(O)c2ccccc2[nH]c1=O [Compound 6, 3-Amino-4-hydroxyquinolin-2(1H)-one]	> 500
OC(Cn1cncn1)(Cn1cncn1)c1ccc(F)cc1F [FLU, Fluconazole, reference compound]	0.24 (≈ 0.0735 µg/mL)

Same assay, conditions: Trichosporon beigelii, 1188; 48h, RPMI 1640, pH 7.0, 35 °C; read-out: MIC/IC80 TB

SMILES	MIC [µM]
Cc1ccc2[nH]c(=O)cc(O)c2c1 [Compound 2, 4-Hydroxy-6-methylquinolin-2(1H)-one]	> 500
Nc1c(O)c2ccccc2[nH]c1=O [Compound 6, 3-Amino-4-hydroxyquinolin-2(1H)-one]	> 500
OC(Cn1cncn1)(Cn1cncn1)c1ccc(F)cc1F [FLU, Fluconazole, reference compound]	0.48 (≈ 0.147 µg/mL)

System: Aspergillus fumigatus 231
Experiment: In vitro antifungal broth microdilution test
Assay type: cell-based
Conditions: Aspergillus fumigatus, 231; 24h, RPMI 1640, pH 7.0, 35 °C; read-out: MIC/IC80 AF
Method: (§1) Fluconazole (FLU) was used as the standard of a clinically used antimycotic drug. The procedure was performed with twofold dilution of the compounds in […]., Prague, Czech Republic) buffered to pH 7.0 with 0.165 mol of 3-morpholino-propane-1-sulfonic acid (MOPS, Sigma, Germany). […] Drug-free controls were included. The MIC was defined as an 80% or greater (IC80) reduction of growth in comparison with the control.

SMILES	MIC [µM]
Cc1ccc2[nH]c(=O)cc(O)c2c1 [Compound 2, 4-Hydroxy-6-methylquinolin-2(1H)-one]	> 500
Nc1c(O)c2ccccc2[nH]c1=O [Compound 6, 3-Amino-4-hydroxyquinolin-2(1H)-one]	> 500
OC(Cn1cncn1)(Cn1cncn1)c1ccc(F)cc1F [FLU, Fluconazole, reference compound]	> 125

Same assay, conditions: Aspergillus fumigatus, 231; 48h, RPMI 1640, pH 7.0, 35 °C; read-out: MIC/IC80 AF

SMILES	MIC [µM]
Cc1ccc2[nH]c(=O)cc(O)c2c1 [Compound 2, 4-Hydroxy-6-methylquinolin-2(1H)-one]	> 500
Nc1c(O)c2ccccc2[nH]c1=O [Compound 6, 3-Amino-4-hydroxyquinolin-2(1H)-one]	> 500
OC(Cn1cncn1)(Cn1cncn1)c1ccc(F)cc1F [FLU, Fluconazole, reference compound]	> 125

System: Candida glabrata 20/I
Experiment: In vitro antifungal broth microdilution test
Assay type: cell-based
Conditions: Nakaseomyces glabratus, 20/I; 24h, RPMI 1640, pH 7.0, 35 °C; read-out: MIC/IC80 CG
Method: as §1

SMILES	MIC [µM]
Cc1ccc2[nH]c(=O)cc(O)c2c1 [Compound 2, 4-Hydroxy-6-methylquinolin-2(1H)-one]	> 500
Nc1c(O)c2ccccc2[nH]c1=O [Compound 6, 3-Amino-4-hydroxyquinolin-2(1H)-one]	> 500
OC(Cn1cncn1)(Cn1cncn1)c1ccc(F)cc1F [FLU, Fluconazole, reference compound]	0.98 (≈ 0.3 µg/mL)

Same assay, conditions: Nakaseomyces glabratus, 20/I; 48h, RPMI 1640, pH 7.0, 35 °C; read-out: MIC/IC80 CG

SMILES	MIC [µM]
Cc1ccc2[nH]c(=O)cc(O)c2c1 [Compound 2, 4-Hydroxy-6-methylquinolin-2(1H)-one]	> 500
Nc1c(O)c2ccccc2[nH]c1=O [Compound 6, 3-Amino-4-hydroxyquinolin-2(1H)-one]	> 500
OC(Cn1cncn1)(Cn1cncn1)c1ccc(F)cc1F [FLU, Fluconazole, reference compound]	3.91 (≈ 1.2 µg/mL)

System: Candida krusei ATCC 6258
Experiment: In vitro antifungal broth microdilution test
Assay type: cell-based
Conditions: Pichia kudriavzevii, ATCC6258; 24h, RPMI 1640, pH 7.0, 35 °C; read-out: MIC/IC80 CK
Method: as §1

SMILES	MIC [µM]
Cc1ccc2[nH]c(=O)cc(O)c2c1 [Compound 2, 4-Hydroxy-6-methylquinolin-2(1H)-one]	> 500
Nc1c(O)c2ccccc2[nH]c1=O [Compound 6, 3-Amino-4-hydroxyquinolin-2(1H)-one]	> 500
OC(Cn1cncn1)(Cn1cncn1)c1ccc(F)cc1F [FLU, Fluconazole, reference compound]	3.91 (≈ 1.2 µg/mL)

Same assay, conditions: Pichia kudriavzevii, ATCC6258; 48h, RPMI 1640, pH 7.0, 35 °C; read-out: MIC/IC80 CK

SMILES	MIC [µM]
Cc1ccc2[nH]c(=O)cc(O)c2c1 [Compound 2, 4-Hydroxy-6-methylquinolin-2(1H)-one]	> 500
Nc1c(O)c2ccccc2[nH]c1=O [Compound 6, 3-Amino-4-hydroxyquinolin-2(1H)-one]	> 500
OC(Cn1cncn1)(Cn1cncn1)c1ccc(F)cc1F [FLU, Fluconazole, reference compound]	15.6 (≈ 4.78 µg/mL)

System: Candida tropicalis 156
Experiment: In vitro antifungal broth microdilution test
Assay type: cell-based
Conditions: Candida tropicalis, 156; 24h, RPMI 1640, pH 7.0, 35 °C; read-out: MIC/IC80 CT
Method: as §1

SMILES	MIC [µM]
Cc1ccc2[nH]c(=O)cc(O)c2c1 [Compound 2, 4-Hydroxy-6-methylquinolin-2(1H)-one]	> 500
Nc1c(O)c2ccccc2[nH]c1=O [Compound 6, 3-Amino-4-hydroxyquinolin-2(1H)-one]	> 500
OC(Cn1cncn1)(Cn1cncn1)c1ccc(F)cc1F [FLU, Fluconazole, reference compound]	0.12 (≈ 0.0368 µg/mL)

Same assay, conditions: Candida tropicalis, 156; 48h, RPMI 1640, pH 7.0, 35 °C; read-out: MIC/IC80 CT

SMILES	MIC [µM]
Cc1ccc2[nH]c(=O)cc(O)c2c1 [Compound 2, 4-Hydroxy-6-methylquinolin-2(1H)-one]	> 500
Nc1c(O)c2ccccc2[nH]c1=O [Compound 6, 3-Amino-4-hydroxyquinolin-2(1H)-one]	> 500
OC(Cn1cncn1)(Cn1cncn1)c1ccc(F)cc1F [FLU, Fluconazole, reference compound]	> 125

System: Candida albicans ATCC 44859
Experiment: In vitro antifungal broth microdilution test
Assay type: cell-based
Conditions: Candida albicans, ATCC44859; 24h, RPMI 1640, pH 7.0, 35 °C; read-out: MIC/IC80 CA
Method: as §1

SMILES	MIC [µM]
Cc1ccc2[nH]c(=O)cc(O)c2c1 [Compound 2, 4-Hydroxy-6-methylquinolin-2(1H)-one]	> 500
Nc1c(O)c2ccccc2[nH]c1=O [Compound 6, 3-Amino-4-hydroxyquinolin-2(1H)-one]	> 500
OC(Cn1cncn1)(Cn1cncn1)c1ccc(F)cc1F [FLU, Fluconazole, reference compound]	0.06 (≈ 0.0184 µg/mL)

Same assay, conditions: Candida albicans, ATCC44859; 48h, RPMI 1640, pH 7.0, 35 °C; read-out: MIC/IC80 CA

SMILES	MIC [µM]
Cc1ccc2[nH]c(=O)cc(O)c2c1 [Compound 2, 4-Hydroxy-6-methylquinolin-2(1H)-one]	> 500
Nc1c(O)c2ccccc2[nH]c1=O [Compound 6, 3-Amino-4-hydroxyquinolin-2(1H)-one]	> 500
OC(Cn1cncn1)(Cn1cncn1)c1ccc(F)cc1F [FLU, Fluconazole, reference compound]	0.12 (≈ 0.0368 µg/mL)

System: Trichophyton mentagrophytes 445
Experiment: In vitro antifungal broth microdilution test
Assay type: cell-based
Conditions: Trichophyton mentagrophytes, 445; 72h, RPMI 1640, pH 7.0, 35 °C; read-out: MIC/IC80 TM
Method: as §1

SMILES	MIC [µM]
Cc1ccc2[nH]c(=O)cc(O)c2c1 [Compound 2, 4-Hydroxy-6-methylquinolin-2(1H)-one]	> 500
Nc1c(O)c2ccccc2[nH]c1=O [Compound 6, 3-Amino-4-hydroxyquinolin-2(1H)-one]	> 500
OC(Cn1cncn1)(Cn1cncn1)c1ccc(F)cc1F [FLU, Fluconazole, reference compound]	1.95 (≈ 0.597 µg/mL)

Same assay, conditions: Trichophyton mentagrophytes, 445; 120h, RPMI 1640, pH 7.0, 35 °C; read-out: MIC/IC80 TM

SMILES	MIC [µM]
Cc1ccc2[nH]c(=O)cc(O)c2c1 [Compound 2, 4-Hydroxy-6-methylquinolin-2(1H)-one]	> 500
Nc1c(O)c2ccccc2[nH]c1=O [Compound 6, 3-Amino-4-hydroxyquinolin-2(1H)-one]	> 500
OC(Cn1cncn1)(Cn1cncn1)c1ccc(F)cc1F [FLU, Fluconazole, reference compound]	3.91 (≈ 1.2 µg/mL)

System: Absidia corymbifera 272
Experiment: In vitro antifungal broth microdilution test
Assay type: cell-based
Conditions: Lichtheimia corymbifera, 272; 24h, RPMI 1640, pH 7.0, 35 °C; read-out: MIC/IC80 AC
Method: as §1

SMILES	MIC [µM]
Cc1ccc2[nH]c(=O)cc(O)c2c1 [Compound 2, 4-Hydroxy-6-methylquinolin-2(1H)-one]	> 500
Nc1c(O)c2ccccc2[nH]c1=O [Compound 6, 3-Amino-4-hydroxyquinolin-2(1H)-one]	> 500
OC(Cn1cncn1)(Cn1cncn1)c1ccc(F)cc1F [FLU, Fluconazole, reference compound]	> 125

Same assay, conditions: Lichtheimia corymbifera, 272; 48h, RPMI 1640, pH 7.0, 35 °C; read-out: MIC/IC80 AC

SMILES	MIC [µM]
Cc1ccc2[nH]c(=O)cc(O)c2c1 [Compound 2, 4-Hydroxy-6-methylquinolin-2(1H)-one]	> 500
Nc1c(O)c2ccccc2[nH]c1=O [Compound 6, 3-Amino-4-hydroxyquinolin-2(1H)-one]	> 500
OC(Cn1cncn1)(Cn1cncn1)c1ccc(F)cc1F [FLU, Fluconazole, reference compound]	> 125
